Experimental data taken from US4752614A, “Pharmaceutical compositions of tellerium and selenium compounds for the induction of in vivo and in vitro production of cytokines” (Bar-Ilan University, priority 1987, dated 1988).
Where “and” joins values, the source holds several entries; their conditions need not be identical. Equal values may be shown once.

Experiments:
human mononuclear cells [1] = assay: Proliferation of human mononuclear cells, 3H-methylthymidine (Examples 4 and 9); format: cell-based; conditions: 1 to 10 ng/ml cells, 72 hours (Example 9)
Procedure: Cells were further incubated overnight and harvested with a cell harvester.

IL-2 [2] = assay: Oral administration in drinking water, IL-2 content of spleen cell supernatants (Example 13); format: in vivo, male Balb-C mice; conditions: 4 days
Procedure: The water solution was prepared by dissolving the compounds in PBS at a concentration of 50 μg/ml PBS and diluting the resulting solution to the desired concentration. The compounds were administered over a 4 day period. The exact amount of liquid intake was recorded daily. […] The cells were incubated at a concentration of 10^7 cells/ml in enriched RPMI containing 2 μg/ml of con-A for 24 hours at 37° C. The supernatants were collected and tested for IL-2 content.

IL-2 [3] = assay: IL-2 secretion by mouse spleen cells in vitro, CTLD proliferation (Example 17); format: cell-based, male Balb/c mice; conditions: for activation at 1 µg/mL: Mus musculus, read-out: Spleen Cells, percent in parentheses (increase over control)
Procedure: The compounds listed below were tested in vitro at various concentrations that ranged from 10 μg/ml cells to 1×10^-6 μg/ml of cell mixtures. Cells were obtained from spleens of male Balb/c mice 6-8 weeks of age. Spleens were pushed through a stainless steel 60 mesh strainer to separate cells.

IL-2 receptors = assay: Induction of IL-2 receptors of human mononuclear cells, proliferation with recombinant IL-2 (Example 18); format: cell-based
Procedure: Human MNC were brought to a concentration of 10^6 cells/ml. RPMI+10% FCS. Aliquots of 0.2 ml. were placed in duplicate wells of microdishes and plates were incubated at 37° C. for 24 hrs. […] Plates were further incubated for 48 hrs. and labelled with 3H thymidine 24 hrs. before harvesting.
The proliferation was measured by ^3 HT uptake as described by Gillis et al, J. Immunol. […] The results are expressed in counts per minute.

human mononuclear cells [4] = assay: Proliferation of human mononuclear cells (Example 19); format: cell-based
Procedure: Human mononuclear cells were obtained by layering heparinized blood over a Ficoll/Hypaque gradient. The mononuclear cells were resuspended in enriched RPMI, rinsed three times and brought to a concentrations of 5×10^5 cells/ml encriched RPMI. […] Aliquots of 0.2 ml of each sample were placed in wells of microplates (triplicates). Microplates were incubated for 72 hours at 37° C. after which they were labelled with H^3 methyl-thymidine 1 μCi/well for an additional 24 hours. Cells were then harvested with a cell harvester.

receptor sites for IL-2 = assay: Detection of IL-2 receptors with fluoresceinated antibody (Example 21); format: cell-based, human; conditions: 1 μg/ml, 24 hours
Procedure: This example provides an assay to detect the presence of receptor sites for IL-2. […] The cells were washed twice with PDS and then incubated with a specific fluoresceinated antibody against IL-2 receptors as described in Uchiyama et al, J. Immunol.

T-cell lymphocytes = assay: Lymphokine induction, proliferation and receptor activation in T-cell lymphocytes (statement)
From the text: Thus the invention also contemplates the use alone of TeO2 and tellurium compounds that are active as lymphokine inducers.

[5] = 24 hours, 1 μg/ml of cell mixture
[6] = second part of table, 1 × 10^-1 μg/ml
[7] = second part of table, 1 × 10^-2 μg/ml
[8] = second part of table, 1 × 10^-3 μg/ml
[9] = second part of table, 1 × 10^-4 μg/ml
[10] = second part of table, 5 × 10^-1 μg/ml
[11] = second part of table, 5 × 10^-2 μg/ml

Cl[Te]1(Cl)OCCO1 [Example 2]
increase of proliferation of human mononuclear cells (human mononuclear cells [1]): 10 fold | IL-2 content (IL-2 [2]; 1 μg/ml H2O): 42500 cpm | Percent increase as compared to control (IL-2 [2]; 1 μg/ml H2O): +30% | IL-2 content (IL-2 [2]; 10 μg/ml H2O): 36815 cpm | IL-2 content (IL-2 [2]; 25 μg/ml H2O): 44500 cpm | Percent increase as compared to control (IL-2 [2]; 25 μg/ml H2O): +35% | Spleen Cells (IL-2 activity) (IL-2 [3]; [5]): 18,000 cpm | activation at 1 µg/mL (IL-2 [3]; [5]): 605% | proliferation (3HT uptake) (IL-2 receptors; Test B, 1 μg/ml): 9315 counts per minute | proliferation (3HT uptake) (IL-2 receptors; Test B, 1 × 10^-2 μg/ml): 6418 counts per minute | proliferation (3HT uptake) (IL-2 receptors; Test B, 1 × 10^-3 μg/ml): 5167 counts per minute | proliferation (3HT uptake) (IL-2 receptors; Test B, 1 × 10^-4 μg/ml): 5372 counts per minute | proliferation (3HT uptake) (IL-2 receptors; Test B, 1 × 10^-5 μg/ml): 6397 counts per minute | proliferation (3HT uptake) (IL-2 receptors; Test B, 5 × 10^-1 μg/ml): 8688 counts per minute | proliferation (3HT uptake) (IL-2 receptors; Test B, 5 × 10^-2 μg/ml): 5538 counts per minute | proliferation (3HT uptake) (IL-2 receptors; Test B, 7 × 10^-1 μg/ml): 5250 counts per minute | proliferation of human mononuclear cells (human mononuclear cells [4]; Ex. 2 table, 1 × 10^-4 μg/ml): 4321 and 2332 | proliferation of human mononuclear cells (human mononuclear cells [4]; Ex. 2 table, 5 × 10^-1 μg/ml): 18415 and 23957 | proliferation of human mononuclear cells (human mononuclear cells [4]; Ex. 2 table, 5 × 10^-2 μg/ml): 5953 and 5532

Cl[TeH]1(Cl)(Cl)OCCCO1 [Example 16(c)]
Spleen Cells (IL-2 activity) (IL-2 [3]; [5]): 15,720 cpm | activation at 1 µg/mL (IL-2 [3]; [5]): 516%

Cl[TeH]1(Cl)(Cl)OCCCCO1 [Example 16(d)]
Spleen Cells (IL-2 activity) (IL-2 [3]; [5]): 18,075 cpm | activation at 1 µg/mL (IL-2 [3]; [5]): 608%

Cl[Te](Cl)(c1ccccc1)c1ccccc1 [Ph2 Te Cl2, reference compound]
Spleen Cells (IL-2 activity) (IL-2 [3]; [5]): 2,300 cpm | activity at level tested (footnote *) (IL-2 [3]): no significant activity

Cl[Te](Cl)(Cl)c1ccccc1 [Ph Te Cl3, reference compound]
Spleen Cells (IL-2 activity) (IL-2 [3]; [5]): 18,000 cpm | activation at 1 µg/mL (IL-2 [3]; [5]): 605%

O=[Te]=O [TeO2, Tellurium dioxide, reference compound]
Spleen Cells (IL-2 activity) (IL-2 [3]; [5]): 17,055 cpm | Spleen Cells, percent in parentheses (increase over control) (IL-2 [3]; [5]): +508% | proliferation (3HT uptake) (IL-2 receptors; Test A, 1 μg/ml): 1563 counts per minute | proliferation (3HT uptake) (IL-2 receptors; Test A, 1 × 10^-2 μg/ml): 3108 counts per minute | proliferation (3HT uptake) (IL-2 receptors; Test A, 1 × 10^-3 μg/ml): 2867 counts per minute | proliferation (3HT uptake) (IL-2 receptors; Test A, 1 × 10^-4 μg/ml): 5540 counts per minute | proliferation (3HT uptake) (IL-2 receptors; Test A, 1 × 10^-5 μg/ml): 3442 counts per minute | proliferation (3HT uptake) (IL-2 receptors; Test A, 5 × 10^-1 μg/ml): 4667 counts per minute | proliferation (3HT uptake) (IL-2 receptors; Test A, 5 × 10^-2 μg/ml): 2515 counts per minute | proliferation (3HT uptake) (IL-2 receptors; Test A, 7 × 10^-1 μg/ml): 2475 counts per minute | proliferation (3HT uptake) (IL-2 receptors; Test B, 1 μg/ml): 3275 counts per minute | proliferation (3HT uptake) (IL-2 receptors; Test B, 1 × 10^-2 μg/ml): 3077 counts per minute | proliferation (3HT uptake) (IL-2 receptors; Test B, 1 × 10^-3 μg/ml): 3800 counts per minute | proliferation (3HT uptake) (IL-2 receptors; Test B, 1 × 10^-4 μg/ml): 2925 counts per minute | proliferation (3HT uptake) (IL-2 receptors; Test B, 1 × 10^-5 μg/ml): 3645 counts per minute | proliferation (3HT uptake) (IL-2 receptors; Test B, 5 × 10^-1 μg/ml): 5405 counts per minute | proliferation (3HT uptake) (IL-2 receptors; Test B, 5 × 10^-2 μg/ml): 4280 counts per minute | proliferation (3HT uptake) (IL-2 receptors; Test B, 7 × 10^-1 μg/ml): 4302 counts per minute | effect on proliferation (human mononuclear cells [4]; any concentration that was tested): No significant effect | proliferation of human mononuclear cells (human mononuclear cells [4]; second part of table, 1 μg/ml): 2842 | proliferation of human mononuclear cells (human mononuclear cells [4]; second part of table, 5 μg/ml): 3028 | proliferation of human mononuclear cells (human mononuclear cells [4]; [6]): 4825 | proliferation of human mononuclear cells (human mononuclear cells [4]; [7]): 4730 | proliferation of human mononuclear cells (human mononuclear cells [4]; [8]): 6168 | proliferation of human mononuclear cells (human mononuclear cells [4]; [9]): 5331 | proliferation of human mononuclear cells (human mononuclear cells [4]; [10]): 4773 | proliferation of human mononuclear cells (human mononuclear cells [4]; [11]): 5802 | cells positive for IL-2 receptors (receptor sites for IL-2): 5% | activation of the receptor site in responder T-cell lymphocytes (T-cell lymphocytes): will not cause proliferation of IL-2 producer cells or activate the receptor site | proliferation of IL-2 producer cells (T-cell lymphocytes): will not cause proliferation of IL-2 producer cells | lymphokine production in producer T-cell lymphocytes (T-cell lymphocytes; in vitro and in vivo): will induce lymphokine production

CC(=O)O[Te](OC(C)=O)(c1ccccc1)c1ccccc1 [Ph2 Te (OCOCH3)2, reference compound]
Spleen Cells (IL-2 activity) (IL-2 [3]; [5]): 3,500 cpm | activity at level tested (footnote *) (IL-2 [3]): no significant activity

CC1CO[TeH](Cl)(Cl)(Cl)O1 (centres unmarked) [Example 16(a)]
Spleen Cells (IL-2 activity) (IL-2 [3]; [5]): 13,540 cpm | activation at 1 µg/mL (IL-2 [3]; [5]): 435% | proliferation (3HT uptake) (IL-2 receptors; Test A, 1 μg/ml): 21910 counts per minute | proliferation (3HT uptake) (IL-2 receptors; Test A, 1 × 10^-2 μg/ml): 9543 counts per minute | proliferation (3HT uptake) (IL-2 receptors; Test A, 1 × 10^-3 μg/ml): 6685 counts per minute | proliferation (3HT uptake) (IL-2 receptors; Test A, 1 × 10^-4 μg/ml): 6447 counts per minute | proliferation (3HT uptake) (IL-2 receptors; Test A, 1 × 10^-5 μg/ml): 8177 counts per minute | proliferation (3HT uptake) (IL-2 receptors; Test A, 5 × 10^-1 μg/ml): 145208 counts per minute | proliferation (3HT uptake) (IL-2 receptors; Test A, 5 × 10^-2 μg/ml): 8752 counts per minute | proliferation (3HT uptake) (IL-2 receptors; Test A, 7 × 10^-1 μg/ml): 130845 counts per minute | proliferation of human mononuclear cells (human mononuclear cells [4]; second part of table, 1 μg/ml): 4557 | proliferation of human mononuclear cells (human mononuclear cells [4]; second part of table, 5 μg/ml): 4118 | proliferation of human mononuclear cells (human mononuclear cells [4]; [6]): 12435 | proliferation of human mononuclear cells (human mononuclear cells [4]; [7]): 6000 | proliferation of human mononuclear cells (human mononuclear cells [4]; [8]): 6300 | proliferation of human mononuclear cells (human mononuclear cells [4]; [9]): 4587 | proliferation of human mononuclear cells (human mononuclear cells [4]; [10]): 18415 | proliferation of human mononuclear cells (human mononuclear cells [4]; [11]): 5953

CC1O[TeH](Cl)(Cl)(Cl)OC1C (centres unmarked) [Example 16(b)]
Spleen Cells (IL-2 activity) (IL-2 [3]; [5]): 10,650 cpm | activation at 1 µg/mL (IL-2 [3]; [5]): 318% | proliferation (3HT uptake) (IL-2 receptors; Test A, 1 μg/ml): 1018 counts per minute | proliferation (3HT uptake) (IL-2 receptors; Test A, 1 × 10^-2 μg/ml): 5883 counts per minute | proliferation (3HT uptake) (IL-2 receptors; Test A, 1 × 10^-3 μg/ml): 1093 counts per minute | proliferation (3HT uptake) (IL-2 receptors; Test A, 1 × 10^-4 μg/ml): 1138 counts per minute | proliferation (3HT uptake) (IL-2 receptors; Test A, 1 × 10^-5 μg/ml): 2146 counts per minute | proliferation (3HT uptake) (IL-2 receptors; Test A, 5 × 10^-1 μg/ml): 1195 counts per minute | proliferation (3HT uptake) (IL-2 receptors; Test A, 5 × 10^-2 μg/ml): 1602 counts per minute | proliferation (3HT uptake) (IL-2 receptors; Test A, 7 × 10^-1 μg/ml): 2102 counts per minute

C1CO[Te]2(O1)OCCO2 [Example 14]
Spleen Cells (IL-2 activity) (IL-2 [3]; [5]): 10,300 cpm | activation at 1 µg/mL (IL-2 [3]; [5]): 304% | proliferation (3HT uptake) (IL-2 receptors; Test B, 1 μg/ml): 2620 counts per minute | proliferation (3HT uptake) (IL-2 receptors; Test B, 1 × 10^-2 μg/ml): 3928 counts per minute | proliferation (3HT uptake) (IL-2 receptors; Test B, 1 × 10^-3 μg/ml): 3007 counts per minute | proliferation (3HT uptake) (IL-2 receptors; Test B, 1 × 10^-4 μg/ml): 2327 counts per minute | proliferation (3HT uptake) (IL-2 receptors; Test B, 1 × 10^-5 μg/ml): 2242 counts per minute | proliferation (3HT uptake) (IL-2 receptors; Test B, 5 × 10^-1 μg/ml): 2402 counts per minute | proliferation (3HT uptake) (IL-2 receptors; Test B, 5 × 10^-2 μg/ml): 3290 counts per minute | proliferation (3HT uptake) (IL-2 receptors; Test B, 7 × 10^-1 μg/ml): 2000 counts per minute

O=C(O[Te](OC(=O)c1ccccc1)(c1ccccc1)c1ccccc1)c1ccccc1 [Ph2 Te (OCOPh)2, reference compound]
Spleen Cells (IL-2 activity) (IL-2 [3]; [5]): 4,300 cpm | activity at level tested (footnote *) (IL-2 [3]): no significant activity

COc1ccc([Te](Cl)(Cl)c2ccc(OC)cc2)cc1 [(pCH3 OPh)2 TeCl2, reference compound]
Spleen Cells (IL-2 activity) (IL-2 [3]; [5]): 2,148 cpm
